The conditions of series [1]: cited from earlier work.
The next series relates to Weibliche CFY-Ratten. The series can be described thus: Mortality after subcutaneous administration in rats. Type of series: in vivo. The conditions noted are these: subcutan, 150 mg/kg, observation one week. From the text: • a) Die Resorption von Nystatin aus per os verabreichtem Nystatin-γ-CD-Komplex Die Resorption des Wirkstoffes wurde an Mäusen, an einem durch intravenöse Applikation einer Suspension von Candida albicans hervorgerufenen Sepsismodell untersucht. Die Sepsis verursachte innerhalb von 2-3 Tagen 100 %ige Mortalität. Den Versuchstieren wurde per os gemäß Beispiel 3 hergestellte, 8 % Nystatin enthaltende Komplex verabreicht. In einem Parallelversuch wurde Nystatin intravenös appliziert. Für beide Gruppen wurde die auf die unbehandelte Kontrolle bezogene Verlängerung der Überlebensdauer ermittelt. [formula] Wenn man diejenigen in Form des Komplexes per os verabreichten Nystatindosen mit denjenigen i.v. applizierten Nystatindosen vergleicht, die eine etwa gleiche Verlängerung der Überlebensdauer bewirkten (Tabelle 9, letzte Spalte),so läßt sich errechnen, daß aus dem Komplex durchschnittlich 6,2 % des Wirkstoffes in die Blutbahn gelangten. Bei den höchsten Dosen (i.v. 1,56 mg/kg, p.o. 25 mg/kg) ist das Zurückfallen der Überlebensdauer bereits auf die schwache Toxizität des Nystatins zurückzuführen. • b) Die Resorption von Nystatin aus subcutan appliziertem Nystatin-γ-CD-Komplex Weibliche CFY-Ratten eines durchschnittlichen Gewichtes von 180 g wurden mit Nystatin, mit Nystatin-γ-CD-Komplex (Wirkstoffgehalt9 8 %) beziehungsweise mit γ-CD behandelt. […]

The subject of series [2] is aus menschlichem Blut hergestellten Suspensionen roter Blutkörperchen. An excerpt:
Dyn. 6, 408-414 [1983]) untersucht. Die Ergebnisse werden in Form der zu 50 %iger Hämolyse gehörenden Konzentrationen (EH₅₀) angegeben. […] Auch die hämolytische Wirkung einer der im Komplex gebundenen γ-CD-Menge entsprechenden Menge γ-Cyclodextrin wurde untersucht.

The subject of another series is Candida albicans. Nature of the series: Biological potency of Nystatin, agar diffusion method. Format: cell-based. An excerpt:
Die vorhergehenden Beispiele beweisen, daß die Polyenantibiotika mit γ-Cyclodextrin Einschlußkomplexe bilden und dadurch ihre Stabilität und Wasserlöslichkeit bedeutend steigt. Entscheidend ist jedoch, ob auch die antifungale Wirkung geblieben ist. Um diese Frage zu beantworten, wurde die antifungale Wirkung der auf unterschiedliche Weise hergestellten Komplexe sowohl sofort nach der Herstellung wie auch nach Lagerung unter Bedingungen, unter denen der nicht durch Komplexbildung geschützte Wirkstoff bereits beträchtliche Aktivitätseinbußen erleidet, untersucht. • a) Flavofungin-γ-Cyclodextrin-Komplex Die antifungale Wirkung der wäßrigen Lösung dieses Komplexes wurde an 6 Spaltpilzen und 13 Fadenpilzen untersucht. Die Ergebnisse sind in der Tabelle 7 zusammengefaßt. Auf Flavofungin bezogen war die minimale Hemmkonzentration in jedem Falle 10-25 µg/ml, was der Wirksamkeit des nicht komplexgebundenen Wirkstoffes entspricht. Es ist besonders bemerkenswert, daß die Substanz auch gegen phytopathogene Fusarien wirkt, d.h. eine Anwendung gegen pilzliche Pflanzenschädlinge begründet ist. Der komplexgebundene Wirkstoff wirkt in der gleichen Konzentration wie Flavofungin. Die Untersuchungenwurden mit der Agardiffusionsmethode vorgenommen. Der Komplex hat den Vorteil, daß zum Bereiten der Lösungen keine organischen Lösungsmittel (DMF bzw. DMSO) erforderlich sind. […]
In general terms: A growth-free zone around the sample is the usual read-out of agar diffusion tests.

Series [3] is described as follows: Solubility of Nystatin in aqueous γ-CD solutions (spectrophotometric). The conditions noted are these: for Nystatinkonzentration: 37 °C, 10 min schütteln. Format: physicochemical. The method, then: Ähnlich wie im Falle des Flavofungins wurde auch für Nystatin die Löslichkeit in γ-CD-Lösungen unterschiedlicher Konzentration ermittelt. Die verwendeten wäßrigen γ-CD-Lösungen hatten Konzentrationen von 0, 1, 2,5, 4, 5, 6, 7, 8, 9, 10 und 15 %. Pro ml wurden 20 mg Nystatin zu gesetzt. Die Lösungen wurden bei 37 °C 10 Minuten lang geschüttelt, dann wurde ihr Nystatingehalt spektrophotometrisch bestimmt. Ähnlich wie bei Flavofungin wurde gefunden, daß die Löslichkeit des Nystatins in wäßrigen γ-CD-Lösungen ansteigt und in 5 %iger γ-CD-Lösung etwa das 25fache, in 10 %iger γ-CD-Lösung etwa das 40fache der ursprünglichen Wasserlöslichkeit beträgt. Die Meßergebnisse sind in der Tabelle 2 zusammengestellt.
Die aus dem anfänglich linearen Abschnitt der bei 37 °C aufgenommen Löslichkeitsisotherme berechnete scheinbare Stabilitätskonstante des Komplexes beträgt etwa 500.

Where two headings read alike, the source gives them in different places.

On to `C[C@@H]1[C@H](O)[C@@H](C)/C=C/C=C/CC/C=C/C=C/C=C/C=C/C(O[C@H]2O[C@H](C)[C@@H](O)[C@H](N)[C@@H]2O)CC2O[C@](O)(CC(O)C(O)CCC(O)CC(O)CC(O)CC(=O)O[C@H]1C)CC(O)C2C(=O)O` (stereo partly drawn) [Nystatin], for which the Löslichkeit in series [1] (70 %iges wäßriges Isopropanol) was 2,2 mg/ml; in series [1] (75 %-iges wäßriges Äthanol) it was 4 mg/mL; in series [1] (reines Isopropanol), 0,62 mg/ml; in series [1] (reines Äthanol), 0,55 mg/ml. In addition, the “maximale Löslichkeit” value in series [1] (Methanol) was 9,2-11,2 mg/ml. The “Löslichkeit, increase” value in series [1] (zusammen mit Polyvinylpyrrolidon ausgefällt (coprecipitate)) is 8-10 mal. Further, the “Mortalität (animals that died)” value in the series with Weibliche CFY-Ratten is given as “kein einziges”. Further, the Hämolyse in series [2] (70 µg/ml Nystatin) turned out to be 70%. Moreover, the “EH₅₀ (concentration for 50 % haemolysis)” value in series [2] (complexes berechnet als Wirkstoff) came to 57 µg/mL. In addition, the “biologische Aktivität” value in the series on Candida albicans was 5033 E/mg. The “biologische Aktivität after treatment without γ-CD” value in the series with Candida albicans (base substance treated as in Beispiel 5 (40 °C, 24 Stunden in water, lyophilised) without γ-CD) is “wesentlich schlechter”. Moreover, the “Löslichkeit relative to ursprüngliche Wasserlöslichkeit” value in series [3] (5 %ige γ-CD-Lösung) is approximately 25 fache; in series [3] (10 %ige γ-CD-Lösung), approximately 40 fache. The Nystatinkonzentration was 0,20 mg/ml in series [3] (γ-CD-Konzentration 0 %); 1,30 mg/ml in series [3] (γ-CD-Konzentration 1 %); 2,36 mg/ml in series [3] (γ-CD-Konzentration 2,5 %); 3,95 mg/ml in series [3] (γ-CD-Konzentration 4 %); 4,70 mg/ml in series [3] (γ-CD-Konzentration 5 %); 5,50 mg/ml in series [3] (γ-CD-Konzentration 6 %). Also, the Nystatinkonzentration in series [3] (γ-CD-Konzentration 7 %) is recorded as 6,30 mg/ml; in series [3] (γ-CD-Konzentration 8 %), 7,20 mg/ml; in series [3] (γ-CD-Konzentration 9 %), 8,10 mg/ml; in series [3] (γ-CD-Konzentration 10 %) it was 8,95 mg/ml; in series [3] (γ-CD-Konzentration 15 %), 8,20 mg/ml.
